Reference: patent publication US20090318351A1, “METHOD OF TREATING ACUTE ST-ELEVATION MYOCARDIAL INFARCTION WITH A DELTA PKC ANTAGONIST” (priority 2008, published 2009)

Assays:
[1] = Effect of D-peptides on plasma stability of KAI-9706
Method: KAI-9706 was engineered with D-amino acids to determine their impact on peptide composition stability. Unmodified KAI-9706 was compared to a peptide composition with the same amino acid sequence, however the amino acids used were d-enantiomers instead of 1-amino acids. A retro-inverso version and a scrambled version of the peptide composition were also prepared.

[2] = test system: patients with acute anterior STEMI; assay: DELTA MI trial: intracoronary KAI-9803 during primary PCI for acute anterior STEMI
Method: Safety and biomarker end points were assessed.
The following example is a clinical treatment of acute ST-elevation myocardial infarction (STEMI) using the compositions and methods provided in the invention.
Patients were recommended to receive aspirin (162-325 mg orally), a thienopyridine loading dose (clopidogrel 300-600 mg or ticlopidine 500 mg), unfractionated heparin, and glycoprotein IIb-IIIa inhibitors during PCI. […] After verifying the final angiographic inclusion criteria during diagnostic angiography, randomization and study drug preparation occurred in the catheterization laboratory before the beginning of the PCI procedure.
Study drug was reconstituted into a clear solution at 1 of 4 concentrations using serial dilutions with 0.9% sodium chloride solution. Study drug was administered during PCI in the following sequence. First, the guidewire was passed across the obstruction in the left anterior descending (LAD) infarct vessel and an over-the-wire balloon catheter was positioned at the level of the obstruction. Second, the guidewire was removed, and dilute contrast was injected to confirm positioning of the catheter tip downstream from the obstruction and to assess patency of the distal vessel. The contrast injection was followed by a saline flush, and the guidewire was reinserted. Third, the balloon was inflated, and, after removing the guidewire, 2 mL of blinded study drug were hand injected slowly into the distal vascular bed over at least 1 minute. Fourth, the guidewire was readvanced through the catheter into the distal vessel, and the balloon was deflated. Finally, after antegrade epicardial coronary flow was re-established following initial balloon inflations, 3 mL of blinded study drug were injected through the guide catheter positioned at the ostium of the left main coronary artery. The PCI procedure was then completed according to standard technique.
After initial informed consent was obtained and before diagnostic angiography was performed, a continuous digital 12-lead ECG monitor (NEMON 180+, Northeast Monitoring, Natick, Mass.) was applied and baseline serum samples were obtained for analyses of cardiac markers including creatine kinase (CK and CK-MB), troponin T, and N-terminal pro-brain natriuretic peptide (BNP).
After completion of the PCI procedure, angiography was performed a minimum of 10 minutes after the final balloon inflation and a minimum of 30 minutes after antegrade epicardial flow was re-established to measure TIMI (Thrombolysis in Myocardial Infarction) flow grade, corrected TIMI frame count, and TIMI myocardial perfusion grade (TMPG). TMPG was assessed approximately 30 minutes after administration of study drug and prior to intracoronary administration of adenosine. Coronary flow reserve was determined by measuring corrected TIMI frame count before and after administration of 18-24 mcg of intracoronary adenosine. A left ventriculogram was performed to assess ejection fraction.
The continuous ECG monitor was removed after 24 hours of data collection. Continuous ST-segment recovery analysis was performed in a blinded core laboratory. End points assessed from measurement of continuous 12-lead ECGs included time to stable ST recovery, % ST-segment resolution at serial static time points, and ST recovery time-trend curve area defined by summated ST-segment resolution and re-elevation integrated over the first 3 hours following PCI.
Blood collection for CK-MB levels was performed at 3-6 hours, 6-12 hours, 18-24 hours, and 36 hours after randomization.

Structure (SMILES): CC[C@@H](C)[C@@H](NC(=O)[C@H]1CCCN1C(=O)[C@@H](C)NC(=O)[C@@H](CC(=O)O)NC(=O)[C@@H](Cc1c[nH]cn1)NC(=O)[C@H](N)CSSC[C@@H](N)C(=O)N[C@H](Cc1ccc(O)cc1)C(=O)NCC(=O)N[C@H](CCCNC(=N)N)C(=O)N[C@H](CCCCN)C(=O)N[C@H](CCCCN)C(=O)N[C@H](CCCNC(=N)N)C(=O)N[C@H](CCCNC(=N)N)C(=O)N[C@H](CCC(N)=O)C(=O)N[C@H](CCCNC(=N)N)C(=O)N[C@H](CCCNC(=N)N)C(=O)N[C@H](CCCNC(=N)N)C(=O)O)C(=O)NCC(=O)N[C@H](Cc1ccc(O)cc1)C(=O)N[C@H](CC(=O)O)C(=O)O [KAI-9706 carrier All-D cargo All-D]
- remaining at 0.25 h [1]: 100%

Structure (SMILES): CC[C@H](C)[C@H](NC(=O)[C@@H]1CCCN1C(=O)[C@H](C)NC(=O)[C@H](CC(=O)O)NC(=O)[C@H](Cc1c[nH]cn1)NC(=O)[C@@H](N)CSSC[C@@H](N)C(=O)N[C@H](Cc1ccc(O)cc1)C(=O)NCC(=O)N[C@H](CCCNC(=N)N)C(=O)N[C@H](CCCCN)C(=O)N[C@H](CCCCN)C(=O)N[C@H](CCCNC(=N)N)C(=O)N[C@H](CCCNC(=N)N)C(=O)N[C@H](CCC(N)=O)C(=O)N[C@H](CCCNC(=N)N)C(=O)N[C@H](CCCNC(=N)N)C(=O)N[C@H](CCCNC(=N)N)C(=O)O)C(=O)NCC(=O)N[C@@H](Cc1ccc(O)cc1)C(=O)N[C@@H](CC(=O)O)C(=O)O [KAI-9706 carrier All-D cargo All-L]
- remaining at 0.25 h [1]: 88%

Structure (SMILES): CC(C)C[C@H](NC(=O)[C@H](CO)NC(=O)CNC(=O)[C@H](CC(C)C)NC(=O)[C@H](CCC(=O)O)NC(=O)[C@H](Cc1ccc(O)cc1)NC(=O)[C@H](CO)NC(=O)[C@H](CC(N)=O)NC(=O)[C@H](Cc1ccccc1)NC(=O)[C@H](CO)NC(=O)[C@@H](N)CSSC[C@H](N)C(=O)N[C@@H](Cc1ccc(O)cc1)C(=O)NCC(=O)N[C@@H](CCCNC(=N)N)C(=O)N[C@@H](CCCCN)C(=O)N[C@@H](CCCCN)C(=O)N[C@@H](CCCNC(=N)N)C(=O)N[C@@H](CCCNC(=N)N)C(=O)N[C@@H](CCC(N)=O)C(=O)N[C@@H](CCCNC(=N)N)C(=O)N[C@@H](CCCNC(=N)N)C(=O)N[C@@H](CCCNC(=N)N)C(=O)O)C(=O)O [KAI-9803]
- investigator-reported CHF events ([2]; active study drug group, through 6 months, number of events): 21
- incidence of serious adverse events versus placebo ([2]; all cohorts): similar
- changes in clinical laboratory values from baseline through 48 hours versus placebo ([2]; blood counts, electrolytes, BUN, creatinine, liver function tests): no differences
- incidence of serious adverse events through 30 days ([2]; cohort 1 (0.05 mg)): 30.4%
- incidence of serious adverse events through 30 days ([2]; cohort 2 (0.5 mg)): 16.0%
- incidence of serious adverse events through 30 days ([2]; cohort 3 (1.25 mg)): 19.2%
- incidence of serious adverse events through 30 days ([2]; cohort 4 (5.0 mg)): 35.7%
- median maximum change in the QT interval from baseline until after the second dose ([2]; pooled active study drug): 16.9 ms

Structure (SMILES): CC[C@@H](C)[C@@H](NC(=O)[C@H]1CCCN1C(=O)[C@@H](C)NC(=O)[C@@H](CC(=O)O)NC(=O)[C@@H](Cc1c[nH]cn1)NC(=O)[C@H](N)CSSC[C@H](N)C(=O)N[C@@H](Cc1ccc(O)cc1)C(=O)NCC(=O)N[C@@H](CCCNC(=N)N)C(=O)N[C@@H](CCCCN)C(=O)N[C@@H](CCCCN)C(=O)N[C@@H](CCCNC(=N)N)C(=O)N[C@@H](CCCNC(=N)N)C(=O)N[C@@H](CCC(N)=O)C(=O)N[C@@H](CCCNC(=N)N)C(=O)N[C@@H](CCCNC(=N)N)C(=O)N[C@@H](CCCNC(=N)N)C(=O)O)C(=O)NCC(=O)N[C@H](Cc1ccc(O)cc1)C(=O)N[C@H](CC(=O)O)C(=O)O [KAI-9706 carrier All-L cargo All-D]
- remaining at 0.25 h [1]: 0%
